From patent US20240374761A1, “ANIMAL MODEL HAVING HOMOLOGOUS RECOMBINATION OF MOUSE PTH1 RECEPTOR” (RADIUS PHARMACEUTICALS, INC., priority 2021, published 2024)
“Also recorded” adds a separate entry of the source. Like-named read-outs stand apart in the source and are kept apart here.

Key:
[1] = molecular target: T1, human PTH1R (hPTH1R-KI mice) (Homo sapiens, UniProt Q03431); experiment: Blood ionized calcium (Ca++) response to PTH ligand analog injection in hPTH1R-KI mice; format: in vivo, mouse; conditions: 40 nmol/kg subcutaneous
T1 construct: Met593 (followed by a stop codon); expressed in transfected cells; host or cells: homozygous hPTH1R-KI C57BL/6 mice (knock-in at the mouse Pth1r locus), in vivo
T1 sequence (Q03431 23-593 E90Y/S91D/E92V/E93P/K95Y/E96A): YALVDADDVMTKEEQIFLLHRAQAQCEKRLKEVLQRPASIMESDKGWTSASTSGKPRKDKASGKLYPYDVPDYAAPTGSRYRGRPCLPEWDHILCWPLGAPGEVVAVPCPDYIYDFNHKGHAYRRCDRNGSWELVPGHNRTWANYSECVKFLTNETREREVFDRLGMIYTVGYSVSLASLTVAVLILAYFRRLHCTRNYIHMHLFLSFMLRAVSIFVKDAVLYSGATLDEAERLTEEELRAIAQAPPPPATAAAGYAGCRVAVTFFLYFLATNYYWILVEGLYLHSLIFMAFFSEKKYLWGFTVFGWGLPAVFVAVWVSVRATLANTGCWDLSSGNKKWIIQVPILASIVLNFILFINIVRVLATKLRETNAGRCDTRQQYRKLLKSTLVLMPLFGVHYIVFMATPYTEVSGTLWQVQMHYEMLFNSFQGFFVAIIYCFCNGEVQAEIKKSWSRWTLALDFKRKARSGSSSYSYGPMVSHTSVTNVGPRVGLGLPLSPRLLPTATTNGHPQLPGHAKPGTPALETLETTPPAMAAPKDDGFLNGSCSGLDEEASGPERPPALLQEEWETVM
Experimental: (§1) The utility of the hPTH1R-KI mice of the present disclosure as a model for predicting the behavior of different PTH and PTHrP analog peptides was evaluated. Ligand-induced PTH1R signaling in bone and kidney results in a rapid increase in blood levels of free ionized calcium (Ca^++) and a decrease in blood levels of inorganic phosphorus (Pi); changes that occur through the promotion of the release of Ca and Pi from bone mineral stores, the reabsorption of Ca from the renal filtrate, and a suppression of Pi reabsorption in the kidney. Thus, blood Ca^++ and Pi levels were measured in WT and hPTH1R-KI mice before and at times after injection of PTH ligands.
Blood ionized calcium (Ca^++) levels were measured in homozygous mice comprising a heterologous polynucleotide comprising human Parathyroid Hormone 1 Receptor (hPTH1R) exons 4 to 16 (hereinafter “hPTH1R-KI” mice), and WT C57BL/6(n) mice, at age 10 weeks. Mice were treated in accordance with the ethical guidelines adopted by the Massachusetts General Hospital (MGH). Mice were injected subcutaneously in the interscapular region with vehicle (5 mM citrate, 150 mM NaCl, 0.05% Tween80, pH 5.0), or vehicle containing either PTH(1-34), PTHrP(1-36) or abaloparatide, each peptide at a dose of 40 nmol/kg of body weight, with five animals per group.
Blood was collected from a ˜2 mm tail vein incision and placed into heparinized capillary tube (Multi-cap-S, Siemens Healthcare Diagnostics Inc, Catalog No. 05656514) just prior to injection (t=0), and at 1, 2, 4 and 8 hours after injection, then immediately analyzed for pH-adjusted ionized calcium using a Siemens RapidLab 348 Ca^2+/pH analyzer.
Data was processed using Microsoft Excel 2016 and GraphPad Prism 8.0. Data is represented as means+/−standard error, and statistical significance was assessed using a two-tailed Students t-test. Two replicate experiments were performed on separated days for each set of 20 hPTH1R-KI and 20 WT control mice n hPTH1R-KI mice. The replicate experiments gave essentially the same result for the two groups, and the data (n=10) were combined as means+SEM.

[2] = molecular target: T2, endogenous rodent PTH receptor (WT C57BL/6 mice) (Mus musculus, UniProt P41593); experiment: Blood ionized calcium (Ca++) response to PTH ligand analog injection in wild-type mice; format: in vivo; conditions: 40 nmol/kg subcutaneous
T2 construct: WT mice expressing the endogenous rodent PTH receptor; endogenous in cells; host or cells: wild-type C57BL/6(n) mice, in vivo (bone and kidney)
T2 sequence (P41593 27-591): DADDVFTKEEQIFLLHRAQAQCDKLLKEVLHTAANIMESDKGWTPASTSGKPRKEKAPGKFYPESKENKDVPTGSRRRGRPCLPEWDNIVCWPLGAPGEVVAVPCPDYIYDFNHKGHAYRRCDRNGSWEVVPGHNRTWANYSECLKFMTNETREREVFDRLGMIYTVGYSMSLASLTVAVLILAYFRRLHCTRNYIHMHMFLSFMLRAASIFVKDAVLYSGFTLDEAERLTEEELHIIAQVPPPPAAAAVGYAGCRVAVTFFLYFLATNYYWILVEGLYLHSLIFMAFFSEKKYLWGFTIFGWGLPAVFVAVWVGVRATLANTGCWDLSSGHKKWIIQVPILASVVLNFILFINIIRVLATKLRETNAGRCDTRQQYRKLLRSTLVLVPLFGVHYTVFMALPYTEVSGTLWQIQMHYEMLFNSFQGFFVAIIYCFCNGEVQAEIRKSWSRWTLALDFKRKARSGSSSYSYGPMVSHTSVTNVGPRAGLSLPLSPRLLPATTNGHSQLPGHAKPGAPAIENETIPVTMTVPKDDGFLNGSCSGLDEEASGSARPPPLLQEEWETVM
Experimental: as §1
Blood ionized calcium (Ca^++) levels were measured in homozygous mice comprising a heterologous polynucleotide comprising human Parathyroid Hormone 1 Receptor (hPTH1R) exons 4 to 16 (hereinafter “hPTH1R-KI” mice), and WT C57BL/6(n) mice, at age 10 weeks. Mice were treated in accordance with the ethical guidelines adopted by the Massachusetts General Hospital (MGH). […]
Blood was collected from a ˜2 mm tail vein incision and placed into heparinized capillary tube (Multi-cap-S, Siemens Healthcare Diagnostics Inc, Catalog No. 05656514) just prior to injection (t=0), and at 1, 2, 4 and 8 hours after injection, then immediately analyzed for pH-adjusted ionized calcium using a Siemens RapidLab 348 Ca^2+/pH analyzer. […]

[3] = molecular target: T1, human PTH1R (hPTH1R-KI mice); experiment: Serum inorganic phosphorus (Pi) response to PTH ligand analog injection in hPTH1R-KI mice; format: in vivo; conditions: 40 nmol/kg
Experimental: To assess changes to blood Pi in response to PTH ligand injection, 10-week-old hPTH1R-KI and wild-type mice were injected with PTH(1-34), PTHrP(1-36), or Abaloparatide (see Example 13) each at a dose of 40 nmol/kg (n=5 mice per group). Tail vein blood was collected into a 1 mL microcentrifuge tubes containing 3 μL 0.5 mM EDTA on ice at t=0, 1, 2, 4, and 8 hours post-injection. The blood samples were centrifuged at 8,000 rpm at 4° C. for 15 minutes, and plasma supernatant was collected and frozen at −80° C. Plasma phosphate was analyzed using a colorimetric phosphate assay kit (AbCam. UK, Catalog No. ab65622).

PTH1R (WT mice) = molecular target: T3, PTH1R (WT mice) (Mus musculus, UniProt P41593); experiment: Antagonist response: blood calcium after co-injection with PTH(1-34) in WT mice; format: in vivo; conditions: 3-month-old WT mice, 40 nmol/kg subcutaneous
T3 construct: WT mice expressing the endogenous rodent PTH receptor; endogenous in cells; host or cells: wild-type C57BL/6(n) mice, in vivo (bone and kidney)
T3 sequence (P41593 27-591): T2 sequence (P41593 27-591)
Experimental: (§2) Briefly, to assess the responses to antagonist PTH analogs, 3-month-old WT or hPTH1R-KI mice were injected subcutaneously with either (1) vehicle, (2) vehicle containing PTH(1-34) alone at 40 nmol/kg, or (3) PTH(1-34) at 40 nmol/kg together with an antagonist peptide, LA-PTH(7-36) or [Leu^11,dTrp^12,Trp^23,Tyr^36]-PTHrP(7-36), each antagonist at a dose of 500 nmol/kg (n=5 mice per group). Blood was collected from the tail vein and calcium was measured as described above in Example 13.

[4] = molecular target: T1, human PTH1R (hPTH1R-KI mice); experiment: Antagonist response: blood calcium after co-injection with PTH(1-34) in hPTH1R-KI mice; format: in vivo, mouse; conditions: 3-month-old hPTH1R-KI mice, 40 nmol/kg subcutaneous
Experimental: as §2

[5] = cited from earlier work
[6] = molecular target: T4, RG conformation of the PTH1R (Homo sapiens, UniProt Q03431); conditions: versus R0 conformation; compared with teriparatide / PTH and PTHrP ligands; cited from earlier work
T4 sequence (Q03431 27-593): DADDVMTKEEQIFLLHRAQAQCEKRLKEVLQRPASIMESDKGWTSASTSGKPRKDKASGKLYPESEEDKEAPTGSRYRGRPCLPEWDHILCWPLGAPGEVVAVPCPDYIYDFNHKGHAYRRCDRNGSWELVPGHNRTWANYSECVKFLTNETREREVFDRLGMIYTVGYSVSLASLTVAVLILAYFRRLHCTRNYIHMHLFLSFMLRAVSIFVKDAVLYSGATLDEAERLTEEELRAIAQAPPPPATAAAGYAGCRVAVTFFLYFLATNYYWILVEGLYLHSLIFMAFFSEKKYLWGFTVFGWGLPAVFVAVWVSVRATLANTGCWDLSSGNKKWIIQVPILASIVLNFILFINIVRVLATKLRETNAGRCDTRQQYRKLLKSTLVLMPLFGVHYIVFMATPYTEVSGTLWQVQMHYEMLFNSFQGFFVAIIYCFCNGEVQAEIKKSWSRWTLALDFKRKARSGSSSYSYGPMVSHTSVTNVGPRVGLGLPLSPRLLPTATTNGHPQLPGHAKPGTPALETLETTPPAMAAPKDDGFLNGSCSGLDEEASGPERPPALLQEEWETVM

[7] = tested on: ovariectomy-induced osteopenic rats; conditions: cited from earlier work
[8] = tested on: ovariectomy-induced osteopenic monkeys; conditions: cited from earlier work

## PTHrP(1-36)
[1]
  duration of calcemic response: more a transient functional response
  blood Ca++ levels at 4 hours: returned to baseline

## CC[C@H](C)[C@H](NC(=O)[C@H](CCC(=O)O)NC(=O)[C@H](CO)NC(=O)[C@@H](NC(=O)[C@@H](N)CO)C(C)C)C(=O)N[C@@H](CCC(N)=O)C(=O)N[C@@H](CC(C)C)C(=O)N[C@@H](CCSC)C(=O)N[C@@H](Cc1cnc[nH]1)C(=O)N[C@@H](CC(N)=O)C(=O)N[C@@H](CC(C)C)C(=O)NCC(=O)N[C@@H](CCCCN)C(=O)N[C@@H](Cc1cnc[nH]1)C(=O)N[C@@H](CC(C)C)C(=O)N[C@@H](CC(N)=O)C(=O)N[C@@H](CO)C(=O)N[C@@H](CCSC)C(=O)N[C@@H](CCC(=O)O)C(=O)N[C@@H](CCCN=C(N)N)C(=O)N[C@H](C(=O)N[C@@H](CCC(=O)O)C(=O)N[C@@H](Cc1c[nH]c2ccccc12)C(=O)N[C@@H](CC(C)C)C(=O)N[C@@H](CCCN=C(N)N)C(=O)N[C@@H](CCCCN)C(=O)N[C@@H](CCCCN)C(=O)N[C@@H](CC(C)C)C(=O)N[C@@H](CCC(N)=O)C(=O)N[C@@H](CC(=O)O)C(=O)N[C@H](C(=O)N[C@@H](Cc1cnc[nH]1)C(=O)N[C@@H](CC(N)=O)C(=O)N[C@@H](Cc1ccccc1)C(=O)O)C(C)C)C(C)C [PTH(1-34)]
[2]
  difference in calcemic response duration compared to the other two ligands: not seen
[1]
  duration of calcemic response: more prolonged calcemic response
  blood Ca++ levels at 4 hours: remained elevated
[3]
  phosphaturic response profile: more prolonged activity in vivo
  serum Pi levels at 2 hours post-injection: remained low
PTH1R (WT mice)
  blood calcium levels after PTH(1-34) alone: expected rise in blood calcium levels
[4]
  blood calcium levels after PTH(1-34) alone: expected rise in blood calcium levels
[5]; previous analyses
  rate of clearance from the blood: comparable rates of clearance

## abaloparatide: synthetic 34-amino acid PTHrP(1-34)-based analogue, AVSEHQLLHDKGKSIQDLRRRELLEKLLXKLHTA, X is Aib (SEQ ID NO: 22)
[1]
  duration of calcemic response: more a transient functional response
  blood Ca++ levels at 4 hours: returned to baseline
[3]
  serum Pi levels at 2 hours post-injection: returned to near-vehicle control levels
[6]
  binding selectivity for the RG conformation of PTH1R: more selectively than teriparatide; also recorded: greater selectivity
[7]
  reversal of bone loss: complete reversal of bone loss
[8]
  reversal of bone loss: complete reversal of bone loss
[5]; in vivo
  rate of clearance from the blood: comparable rates of clearance
